Results published in patent US20240317724A1, “3,4-METHYLENEDIOXYMETHAMPHETAMINE AND RELATED PS[…] USES THEREOF” (Terran Biosciences Inc., priority 2021, published 2024).

Experiments:
[1] = Single oral (PO) dose pharmacokinetics study in rats; plasma concentration of MDMA (and prodrug) by LC-MS/MS; details: for AUC(0-t): po, mean
[2] = Single intravenous (IV) dose pharmacokinetics study in rats; plasma concentration of MDMA by LC-MS/MS
[3] = male, Sprague-Dawley, rat, plasma, iv, 1 mg/kg
[4] = 0.50 h after oral dosing of prodrug 10 mg/Kg, male SD rats
[5] = 1.00 h after oral dosing of prodrug 10 mg/Kg, male SD rats
[6] = 2.00 h after oral dosing of prodrug 10 mg/Kg, male SD rats
[7] = 4.00 h after oral dosing of prodrug 10 mg/Kg, male SD rats
[8] = 7.00 h after oral dosing of prodrug 10 mg/Kg, male SD rats
[9] = 24.0 h after oral dosing of prodrug 10 mg/Kg, male SD rats

Structure (SMILES): CNC(C)Cc1ccc2c(c1)OCO2 (centres unmarked) [MDMA, 3,4-Methylenedioxymethamphetamine]
- Tlast ([1]; MDMA dosed PO 10 mg/Kg, male SD rats, analyte MDMA, median): 7.00 h
- bioavailability ([1]; male, Sprague-Dawley, rat, plasma, oral, 10 mg/kg): 104%
- AUC(0-t) ([1]; male, Sprague-Dawley, rat, plasma, 10 mg/kg, AUC0-2, MDMA dosed PO 10 mg/Kg, male SD rats, analyte MDMA): 638 ng·h/mL
- AUC(0-t) ([1]; male, Sprague-Dawley, rat, plasma, 10 mg/kg, AUC0-24, MDMA dosed PO 10 mg/Kg, male SD rats, analyte MDMA): 1810 ng·h/mL
- AUC(0-t) ([1]; male, Sprague-Dawley, rat, plasma, 10 mg/kg, AUC0-last, MDMA dosed PO 10 mg/Kg, male SD rats, analyte MDMA): 1710 ng·h/mL
- Tlast ([2]; MDMA dosed IV 1 mg/Kg, male SD rats, analyte MDMA, median): 2.00 h
- Vd [2, 3]: 8.18 L/kg
- clearance [2, 3]: 274 mL/min/kg

Structure (SMILES): CC(C)[C@H](N)C(=O)N(C)C(C)Cc1ccc2c(c1)OCO2 (stereo partly drawn) [Valine prodrug of MDMA, (2S)-2-amino-N-[2-(1,3-benzodioxol-5-yl)-1-methyl-ethyl]-N,3-dimethyl-butanamide]
- Mean plasma concentration of metabolite MDMA [1, 4]: BLQ (BLQ: Below Lower Limit of Quantification (0.5 ng/mL))
- Mean plasma concentration of metabolite MDMA [1, 5]: BLQ (BLQ: Below Lower Limit of Quantification (0.5 ng/mL))
- Mean plasma concentration of metabolite MDMA [1, 6]: BLQ (BLQ: Below Lower Limit of Quantification (0.5 ng/mL))
- Mean plasma concentration of metabolite MDMA [1, 7]: BLQ (BLQ: Below Lower Limit of Quantification (0.5 ng/mL))
- Mean plasma concentration of metabolite MDMA [1, 8]: BLQ (BLQ: Below Lower Limit of Quantification (0.5 ng/mL))
- Mean plasma concentration of metabolite MDMA [1, 9]: BLQ (BLQ: Below Lower Limit of Quantification (0.5 ng/mL))

Structure (SMILES): CC(Cc1ccc2c(c1)OCO2)N(C)C(=O)OCC(C)(C)COC(=O)C(C)(C)C (centres unmarked) [[3-[[2-(1,3-Benzodioxol-5-yl)-1-methyl-ethyl]-methyl-carbamoyl]oxy-2,2-dimethyl-propyl] 2,2-dimethylpropanoate]
- Mean plasma concentration of metabolite MDMA [1, 4]: BLQ (BLQ: Below Lower Limit of Quantification (0.5 ng/mL))
- Mean plasma concentration of metabolite MDMA [1, 5]: BLQ (BLQ: Below Lower Limit of Quantification (0.5 ng/mL))
- Mean plasma concentration of metabolite MDMA [1, 6]: BLQ (BLQ: Below Lower Limit of Quantification (0.5 ng/mL))
- Mean plasma concentration of metabolite MDMA [1, 7]: BLQ (BLQ: Below Lower Limit of Quantification (0.5 ng/mL))
- Mean plasma concentration of metabolite MDMA [1, 8]: BLQ (BLQ: Below Lower Limit of Quantification (0.5 ng/mL))
- Mean plasma concentration of metabolite MDMA [1, 9]: BLQ (BLQ: Below Lower Limit of Quantification (0.5 ng/mL))
